# Results: patent US20060156419A1, “Mouse model for autoimmune disorders” (THE WISTAR INSTITUTE of ANATOMY and BIOLOGY, priority 2002, published 2006)
# Read-outs that look alike come from different tables or passages of the source.
# Tests used:
# TS1(SW) T cell receptor [1] = assay: Proliferation of TS1(SW) CD4+ T cells in response to graded doses of peptide; assay type: cell-based, mouse; conditions: for EC50: read-out: half maximal stimulation
# TS1 T cell receptor = assay: Proliferation of TS1 CD4+ T cells in response to graded doses of peptide; assay type: cell-based, mouse
# TS1(SW) T cell receptor [2] = conditions: Jordan et al, 2001; cited from earlier work
Sequence,"affinity for the TS1(SW) TCR, fold lower than for S1(SW) peptide (TS1(SW) T cell receptor [1])",binding affinity of TS1(SW) T cell receptor (in words) (TS1(SW) T cell receptor [1]),fold higher concentrations of S1 peptide needed to reach half-maximal stimulation (TS1(SW) T cell receptor [1]),EC50 (TS1(SW) T cell receptor [1]) [nM],binding affinity of TS1 T cell receptor (in words) (TS1 T cell receptor),"affinity of TS1(SW) TCR for S1 peptide, fold lower than that of the TS1 TCR (TS1(SW) T cell receptor [2])","EC50 (TS1(SW) T cell receptor [1]; CD4+ T cells of TS1(SW) TCR transgenic mice, proliferation, FIG. 7) [nM]",binding affinity of TS1(SW) T cell receptor (in words) (TS1(SW) T cell receptor [1]; FIG. 7B),binding affinity of TS1 T cell receptor (in words) (TS1 T cell receptor; FIG. 7A)
SFERFEIFPKE [S1 peptide],about 100 fold,low affinity,around 30 fold,> 1000,high affinity,approximately 100 fold,–,–,–
SFEKFEIFPKT [S1(SW) peptide],–,–,–,–,–,–,~50,high affinity,low affinity
